Measurements from the supplement of paper PMC10307832.

Assays:
Test in all cases: relative viability (nuclei count vs DMSO), 5 days (fraction); higher = more cells survive
[1] = compound: COc1cc2nccc(Oc3ccc(NC(=O)C4(C(=O)Nc5ccc(F)cc5)CC4)cc3)c2cc1OC [Cabozantinib] + CC(C)C[C@H](NC(=O)[C@H](Cc1ccccc1)NC(=O)c1cnccn1)B(O)O [Bortezomib] (partner 0.002 µM)
Procedure, shortened: (§1)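 Lung cancer cell lines in 1536-well plates got either a single drug or a fixed anchor-drug dose together with five library-drug doses (not always all listed) in √10 steps, by pin tool, on the day after seeding. Nuclei were counted after 5 days, and relative viability is the treated-to-vehicle ratio of nuclei counts. Values are medians of duplicate plates.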

Kobe2602 + Palbociclib = compound: C1=CC(=CC=C1NC(=S)NNC2=C(C=C(C=C2[N+](=O)[O-])C(F)(F)F)[N+](=O)[O-])F [Kobe2602] + CC(=O)c1c(C)c2cnc(Nc3ccc(N4CCNCC4)cn3)nc2n(C2CCCC2)c1=O [Palbociclib] (partner 0.5 µM)
Procedure, shortened: as §1

Kobe2602 + Luminespib = compound: C1=CC(=CC=C1NC(=S)NNC2=C(C=C(C=C2[N+](=O)[O-])C(F)(F)F)[N+](=O)[O-])F [Kobe2602] + CCNC(=O)c1noc(-c2cc(C(C)C)c(O)cc2O)c1-c1ccc(CN2CCOCC2)cc1 [Luminespib] (partner 0.01 µM)
Procedure, shortened: as §1

Kobe2602 + Vorinostat = compound: C1=CC(=CC=C1NC(=S)NNC2=C(C=C(C=C2[N+](=O)[O-])C(F)(F)F)[N+](=O)[O-])F [Kobe2602] + O=C(CCCCCCC(=O)Nc1ccccc1)NO [Vorinostat] (partner 1 µM)
Procedure, shortened: as §1

UMC-11 was tested, and the relative viability ([1]; first compound 0.02 µM) was 0.669, the relative viability ([1]; first compound 0.06325 µM) was 0.921 and the relative viability ([1]; first compound 0.2 µM) was 0.709. The relative viability ([1]; first compound 0.6325 µM) was 0.649, the relative viability ([1]; first compound 2 µM) was 0.815 and the relative viability (Kobe2602 + Palbociclib; first compound 0.2 µM) was 0.356. It also gave a relative viability (Kobe2602 + Palbociclib; first compound 0.6325 µM) of 0.331, a relative viability (Kobe2602 + Palbociclib; first compound 2 µM) of 0.347 and a relative viability (Kobe2602 + Palbociclib; first compound 6.325 µM) of 0.343. It also gave a relative viability (Kobe2602 + Palbociclib; first compound 20 µM) of 0.345, a relative viability (Kobe2602 + Luminespib; first compound 0.2 µM) of 1.04 and a relative viability (Kobe2602 + Luminespib; first compound 0.6325 µM) of 1.12. The relative viability (Kobe2602 + Luminespib; first compound 2 µM) was 0.959, the relative viability (Kobe2602 + Luminespib; first compound 6.325 µM) was 1.04 and the relative viability (Kobe2602 + Luminespib; first compound 20 µM) was 1.05. It also gave a relative viability (Kobe2602 + Vorinostat; first compound 0.2 µM) of 0.428, a relative viability (Kobe2602 + Vorinostat; first compound 0.6325 µM) of 0.39 and a relative viability (Kobe2602 + Vorinostat; first compound 2 µM) of 0.336. The relative viability (Kobe2602 + Vorinostat; first compound 6.325 µM) was 0.409 and the relative viability (Kobe2602 + Vorinostat; first compound 20 µM) was 0.377.
